Assay [1] addresses T1, ENAH EVH1 domain (Homo sapiens, UniProt Q8N8S7).
T1 construct: places a 6×-His and TEV cleavage tag N-terminal to the EVH1 domain; 6×-His + TEV cleavage site (N, cleaved yes); made in house; host or cells: E. coli Rosetta2(DE3)
As to the kind of experiment: Biolayer interferometry (BLI), SUMO-peptide fusions binding monomeric ENAH EVH1 domain WT. The protocol: All BLI experiments were performed with 2 replicates on an Octet Red96 instrument (ForteBio). […] The loaded tips were immersed in a solution of ENAH EVH1 domain at a relevant dilution series in BLI buffer at an orbital shake speed of 1000 rpm and run until the binding signal plateaued. ENAH-bound tips were subsequently placed into BLI buffer only for dissociation and run until the binding signal plateaued. KD values were obtained through steady state analysis. […] The association phases were then fit to a one-phase binding model in Prism and the equilibrium steady-state binding signal values from that fit were plotted against ENAH concentration and fit to a single-site specific binding model in Prism to obtain dissociation constants. Errors reported are the standard deviation of two replicates.
Monomeric ENAH, EVL, or VASP EVH1 domains for use in BLI and ITC experiments, or ENAH EVH1-peptide fusions for crystallography was cloned into a pMCSG7 vector (gift from Frank Gertler, MIT), which places a 6×-His and TEV cleavage tag N-terminal to the EVH1 domain. These constructs were transformed into Rosetta2(DE3) cells and grown in 2×YT media supplemented with 100 μg/mL ampicillin. Cells were grown while shaking at 37° C. to an O.D. 600 of 0.5-0.7, and then cooled on ice for at least 20 minutes. They were then induced with 0.5 mM IPTG and grown while shaking at 18° C. overnight. Induced cultures were resuspended in 25 mL of wash buffer (20 mM Hepes pH 7.6, 500 mM NaCl, 20 mM imidazole) and frozen at −80° C. overnight. The next day, cultures were sonicated, spun down, and applied to Ni-NTA acid agarose resin equilibrated with wash buffer, and washed as described above. Samples were eluted in 10 mL elution buffer (20 mM Hepes pH 7.6, 500 mM NaCl, […]). TEV protease was added to the elution at a ratio of 1 mg TEV:50 mg tagged protein along with 1 mM DTT. This mixture was dialyzed against TEV cleavage buffer (50 mM Hepes pH 8.0, 300 mM NaCl, 5 mM DTT, 1 mM EDTA) at 4° C. overnight and then applied over Ni-NTA acid agarose resin equilibrated with wash buffer. The column was washed with 2×8 mL of wash buffer, and the resulting flow-through and washes were pooled, concentrated, and applied to an S75 26/60 column equilibrated in gel filtration buffer (20 mM Hepes pH 7.6, 150 mM NaCl, 1 mM DTT, 1% glycerol). Purity was verified by SDS-PAGE and combined fractions were concentrated and flash frozen at −80° C.
Rosetta2(DE3) cells (Novagen) were transformed with pDW363 vector encoding 6×-His-SUMO-peptide fusions and grown in 20 mL of LB+100 μg/mL Ampicillin+0.050 mM D-(+)-Biotin dissolved in DMSO for in vivo biotinylation. Cells were grown to an OD of 0.5-0.7 with 1 mM IPTG and induced for 4-6 hours at 37° C. Pellets were spun down and frozen and −80° C. for at least 2 hours. These pellets were then thawed and resuspended in B-PER reagent (ThermoFisher) at 4 mL/gram of pellet with 0.2 mM PMSF. This suspension was shaken at 25° C. for 10-15 minutes, and then spun down at 15,000 g for 10 minutes. The supernatant was applied to 250 μL of Ni-NTA acid agarose resin equilibrated in 20 mM Tris pH 8.0, 500 mM NaCl, 20 mM Imidazole (Buffer A), and then washed 3 times with 1 mL of this buffer. Peptides were eluted in 1.8 mL of 20 mM Tris pH 8.0, 500 mM NaCl, 300 mM imidazole to use in BLI assays.
On the technique in general: Biolayer interferometry detects binding as a change in optical thickness at a sensor tip.

Assay [2] deals with T1, ENAH EVH1 domain. Kind of assay: Isothermal titration calorimetry (ITC), SUMO-peptide titrated into ENAH EVH1 domain. Type of assay: binding. As to conditions: 25° C. The protocol:
ITC experiments were performed with two replicates using a VP-ITC microcalorimeter (MicroCal LLC). To prepare samples for ITC, 2.5 mL of 100 μM ENAH EVH1 domain and 1 mL of 800 μM-1.2 mM of SUMO-peptide fusions were dialyzed against 2 μL of ITC Buffer (20 mM Hepes pH 7.6, 150 mM NaCl, 1 mM TCEP) at 4° C. overnight. The concentrations of proteins were remeasured after dialysis on the day of experiment. SUMO-peptide was titrated into ENAH EVH1 domain at 25° C. Data analysis and curve fitting were performed with the Origin 7.0 software (OriginLab). Errors reported as the standard deviation of two replicates.
SUMO-peptide fusions were cloned into a pDW363 vector that appends a BAP and 6×-His tag to the N-terminus of the protein and transformed into Rosetta2(DE3) cells. For ITC experiments, these cells were expressed in TB supplemented with 100 μg/mL ampicillin, grown to an O.D. 600 of 0.5-0.7, and induced with 1 mM IPTG. Induced cultures were purified as described above for the pMCGS7 constructs, with the exception of the TEV cleavage step. Instead, after elution with elution buffer, the sample was directly applied to the S75 26/60 column equilibrated in gel filtration buffer. Fractions were pooled, concentrated, and flash frozen at −80° C.
(ITC needs no label: the signal is the heat of the interaction.)

Assay [3] deals with MV^D7shEVL cells expressing GFP-ENAH, GFP-EVL or GFP-VASP. Kind of assay: Live-cell imaging of PCARE constructs co-expressed with GFP-tagged Ena/VASP paralogs. Type of assay: cell-based, mice. From the text: MV^D7 are embryonic fibroblasts derived from Enah^−/− Vasp^−/− mice, with low Evl expression (Auerbach 2003, Damiano-Guercio 2020). As Ena/VASP family members are known to heterotetramerize (Riquelme 2015), we used an shRNA against Evl to provide a clean background (average knockdown of MV^D7shEVL versus MV^D7 42.8+/−1.8% by qPCR, 3 biological replicates).
Together, these findings indicate that PCARE interacts specifically with ENAH and is capable of recruiting ENAH away from its normal functional sites. […]
Cells were imaged on a Ti-E inverted microscope (Nikon), with a 100× Apo TIRF 1.49 NA objective (Nikon) and an ORCA-Flash 4.0 V2 CMOS camera (Hamamatsu). For focal adhesion assessment, cells were imaged with total internal reflection fluorescence (TIRF) microscopy. To increase the depth of imaging for examination of mitochondrial localization, standard widefield fluorescence microscopy was used. Focal adhesion quantification was performed as previously described (Puleo 2019). […] Focal adhesion area was quantified by measuring the paxillin area of each cell within the whole cell area, or by examining individual focal adhesions. […]

“Also recorded” adds a separate entry of the source. Where no end group is shown, it is not given here. disordered linker = not defined here

T1 sequence (Q8N8S7 with tags, fused parts or gaps): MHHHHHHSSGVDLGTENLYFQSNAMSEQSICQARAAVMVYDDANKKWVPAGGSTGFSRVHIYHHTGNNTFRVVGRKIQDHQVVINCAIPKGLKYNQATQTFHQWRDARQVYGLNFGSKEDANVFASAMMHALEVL

In assay [1] (sequence between the two motifs replaced with a Gly-Ser linker), `CC[C@H](C)[C@H](NC(=O)[C@H](CO)NC(=O)[C@@H]1CCCN1C(=O)[C@H](CC(C)C)NC(=O)[C@H](C)NC(=O)[C@H](CO)NC(=O)[C@H](CO)NC(=O)[C@H](CC(=O)O)NC(=O)[C@H](CC(=O)O)NC(=O)[C@H](CC(C)C)NC(=O)[C@@H]1CCCN1C(=O)[C@@H]1CCCN1C(=O)[C@@H]1CCCN1C(=O)[C@@H]1CCCN1C(=O)[C@@H]1CCCN1C(=O)[C@@H]1CCCN1C(=O)[C@H](CC(C)C)NC(=O)[C@H](Cc1ccccc1)NC(=O)[C@H](CC(=O)O)NC(=O)CNC(=O)[C@H](CCC(=O)O)NC(=O)CNC(=O)CNC(=O)[C@@H]1CCCN1C(=O)[C@H](CCC(N)=O)NC(=O)[C@@H](N)CCCCN)C(=O)N[C@@H](CO)C(=O)NCC(=O)N[C@@H](CC(N)=O)C(=O)N[C@@H](Cc1ccccc1)C(=O)N1CCC[C@H]1C(=O)N1CCC[C@H]1C(=O)N1CCC[C@H]1C(=O)N1CCC[C@H]1C(=O)N1CCC[C@H]1C(=O)N[C@@H](CC(C)C)C(=O)O` [LPP] returned a reduction in affinity of about 4 fold. Besides, in assay [2], the ITC binding model entry is “fit well to a 1:1 binding model” and the “ITC thermodynamic driving force of binding” value is “enthalpically driven”.

For “ADRSPFLPPPPPVTDCSQGSPLPHSPVFPPPPPEAL-OH [NHSL1]”, in assay [2], the ITC binding model result is given as “fit well to a 1:1 binding model” and the “ITC thermodynamic driving force of binding” value is “enthalpically driven”.

Usually Kd stands for the concentration at which binding is half-saturated. As to “GSTQDVQSSPHNQFTFRPLPPPPPPPHACTCARKPP [TENM1]”, the Kd in assay [1] (BLI, ENAH EVH1 domain) is over 60 µM.

For “ILSGLPAPDFIDYPERQECNCRPQESPYVSGMKTCH [TRIM1, CXC-motif peptide from E3 ubiquitin ligase TRIM1]”, the “binding to monomeric ENAH EVH1 domain by BLI, in words” value in assay [1] is “did not saturate; also recorded: bound weakly and reversibly”.

On to “PPAPEEQDLSMADFPPPEEAFFSVASPEPAGPSGSP [KIAAA1522]”, for which the “binding to monomeric ENAH EVH1 domain by BLI, in words” value in assay [1] is reported as “mid-micromolar affinity”.

For the compound “mRuby2-PCARE: PCARE^822-848 tagged at the N-terminus with mRuby2 and a disordered linker, lentiviral expression ({mRuby2-disordered linker}-EMEGNLEHLPPPPMEVLMDKSFASLES; reading uncertain; UniProt A6NGG8 822-848, looked up, fragment)”, the “localization of the PCARE construct” value was “diffuse cytoplasmic localization” in assay [3] (all conditions except co-expression with ENAH (GFP, ΔEVH1-ENAH, EVL, VASP)) and “moderately recruited to focal adhesions” in assay [3] (co-expressed with GFP-ENAH).

These data come from patent US12552834B2, “Selective MENA binding peptides” (MASSACHUSETTS INSTITUTE OF TECHNOLOGY, priority 2021, dated 2026).
